This is an account of results in publication doi:10.1101/2021.04.29.441652v1 (biorxiv, 2021).

The target of the test is human σ2 receptor (TMEM97) (Homo sapiens, UniProt Q5BJF2). Put plainly: biochemical. In kind it is Expi293 membranes. The conditions noted are these: read-out: % of control remaining.
human σ2 receptor (TMEM97), sequence (Q5BJF2 whole entry): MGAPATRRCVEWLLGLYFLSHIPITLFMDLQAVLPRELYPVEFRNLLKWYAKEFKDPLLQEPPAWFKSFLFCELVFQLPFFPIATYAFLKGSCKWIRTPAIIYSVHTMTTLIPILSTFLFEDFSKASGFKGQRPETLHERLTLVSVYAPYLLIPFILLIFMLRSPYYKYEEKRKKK
For the compound `CC[C@@H](C)N1CCN(c2nc(N)nc(C(F)(F)C(F)(F)F)n2)CC1` [ZINC000894101819], the remaining activity at 1 µM came to 35%.

`CCC(C)(C)N1CCN(c2nc(N)nc(C(F)(F)C(F)(F)F)n2)CC1` [ZINC000894427229]: the remaining activity at 1 µM stood at 38.7%.

For `CCC(C)(C)N1CCN(c2cc(C(F)F)ncn2)CC1` [ZINC000894429059], the remaining activity at 1 µM is 33.6%.

For the compound `C[C@@H]1CCCN1CCNC(=O)N1CCC[C@@H]1[C@@H]1CCCC[C@@]1(C)O` [ZINC000897504395], the remaining activity at 1 µM turned out to be 90.9%.

For the compound `FC(F)(F)c1ccnc([C@H]2CCN(C[C@@H]3C[C@H]3c3ccccc3)C2)n1` [ZINC000897616680], the remaining activity at 1 µM was determined as 5.1%.

In the case of `O=C(CN[C@H]1CCNC12CCC2)NCCN1CCc2ccccc21` [ZINC000903470913], the remaining activity at 1 µM worked out at 92.2%.

Regarding `C[C@@H]1CN(C(=O)C2CN(C)CCN(C)C2)CC(C)(C)O1` [ZINC000906421824], the remaining activity at 1 µM is 127%.

Turning to `CS(=O)(=O)N1CC(C(=O)N2CC(=O)N(CC(F)(F)F)C2)C1` [ZINC000907721339], the remaining activity at 1 µM came to 119%.

For `Cc1ccc(NC(=O)C23CCC(CC2)N3)cc1[N+](=O)[O-]` [ZINC000911907143], the remaining activity at 1 µM was determined as 93.1%.

For `CC(C)(CN1C(=O)N2CCC[C@@H]3C[C@@]32C1=O)N1CCc2ccccc2C1` [ZINC000924470947], the remaining activity at 1 µM was 45.5%.

Consider `CCn1ncc2c1CCC[C@@H]2N[C@@H](C)Cc1ccccn1` [ZINC000925887162], for which the remaining activity at 1 µM is 27.4%.

Take `O=C1CCCCN1C1CCN(C[C@H](O)C[C@]2(O)CCOC2)CC1` [ZINC000929842198]: the remaining activity at 1 µM amounted to 104%.

Regarding `O=C1[C@@H](N2CC[C@@H](C3OCCO3)C2)CCN1c1cccc(Br)c1` [ZINC000932000298], the remaining activity at 1 µM was 75.9%.

On to `CCOC(=O)[C@@H]1CCN(C[C@@H](O)COc2cccc(C)c2)C1` [ZINC000932649435], for which the remaining activity at 1 µM amounted to 69.5%.

As for `Cc1csc2nc(CN[C@](C)(CO)Cc3ccc(F)cc3)cc(=O)n12` [ZINC000933438523], the remaining activity at 1 µM was 28.1%.

On to `O[C@H](CN1CC[C@@H](Cc2nccs2)C1)c1c(F)cccc1F` [ZINC000934332177], for which the remaining activity at 1 µM was found to be 34%.

Take `C[C@H]1CCCN1CC(=O)N(C)[C@H]1CCN(C(=O)C2CCOCC2)C1` [ZINC000936344871]: the remaining activity at 1 µM is 82.7%.

As to `C[C@H]1CCCN1CC(=O)N(C)[C@H]1CCN(C(=O)CC(C)(C)O)C1` [ZINC000937267298], the remaining activity at 1 µM was 111%.

`Cc1nc(C)c(CC(=O)N2CC[C@H](NC(=O)c3cnn[nH]3)C2)c(O)n1` [ZINC000938242679]: the remaining activity at 1 µM came to 107%.

Turning to `Cc1cc(NC(=O)C(=O)N2CC[C@@H](NC(=O)c3cncn3C)C2)no1` [ZINC000941361883], the remaining activity at 1 µM was 111%.

With `Cn1nc(C(=O)N[C@@H]2CCN(C(=O)Cc3cscn3)C2)ccc1=O` [ZINC000942457739], the remaining activity at 1 µM is 89.4%.

With `CCN1CC[C@@H](NC(=O)c2ccnc(-n3cncn3)c2)C[C@@H]1C` [ZINC000948091407], the remaining activity at 1 µM worked out at 112%.

With `Cc1cc(C)nc(C(=O)N2CC[C@H]2CNC(=O)[C@@H]2CCN(C)C2)c1` [ZINC000950078544], the remaining activity at 1 µM was found to be 108%.

Turning to `CN(C(=O)c1cccnn1)C1CN(C(=O)[C@H]2CCC[C@H]3CCCN32)C1` [ZINC000955102158], the remaining activity at 1 µM came out at 111%.

As to `CN(C(=O)c1c[nH]c(=O)cn1)C1CN(C(=O)c2n[nH]c3c2CCC3)C1` [ZINC000955144887], the remaining activity at 1 µM is 96.9%.

As to `CCC(=O)N1CCN([C@H]2CCN(C(=O)c3c[nH]c(=O)cn3)C2)CC1` [ZINC000956566890], the remaining activity at 1 µM came to 112%.

`O=C(C1CCCC1)N1CCC[C@H]([C@@H]2CCN(C/C=C\Cl)C2)C1` [ZINC000961091031]: the remaining activity at 1 µM was 33%.

Turning to `Cc1c(C(=O)N[C@@H]2CN(C(=O)C3=COCCC3)C[C@@H]2O)cnn1C` [ZINC000961583379], the remaining activity at 1 µM was 91.1%.

Turning to `O=C([C@H]1CCOC1)N1CCOC2(C1)CN(C(=O)[C@@]1(F)CCOC1)C2` [ZINC000965338365], the remaining activity at 1 µM amounted to 99.1%.

As for `CCc1c(C(=O)N[C@@H]2CN(C(=O)c3n[nH]cc3C)C[C@@H]2O)cnn1C` [ZINC000968717635], the remaining activity at 1 µM is 94.6%.

On to `COc1ccc(C(=O)N[C@@H]2CN(C(=O)C3(C)CCC3)C[C@@H]2O)nn1` [ZINC000970553575], for which the remaining activity at 1 µM is 92.8%.

For the compound `Cc1cc(C(=O)N2CC[C@H](N(C)Cc3ccc(C)c(C)c3)C2)on1` [ZINC000971070823], the remaining activity at 1 µM came out at 90.9%.

As for `CN(C[C@H]1CCCCO1)[C@@H]1CCN(C(=O)c2nc(Cl)cs2)C1` [ZINC000972168981], the remaining activity at 1 µM stood at 63.4%.

For `COCCN1C[C@H](C(=O)N[C@H]2C[C@H](NC(=O)c3cn[nH]c3)C2)CC1=O` [ZINC000973057271], the remaining activity at 1 µM worked out at 111%.

`C[C@@H]1CCN(CC(=O)N[C@H]2C[C@H](NC(=O)c3cnnc(O)c3)C2)C1` [ZINC000973375109]: the remaining activity at 1 µM amounted to 111%.

Take `Cn1nncc1C(=O)NC[C@H]1CC[C@@H](NC(=O)c2cnns2)C1` [ZINC000981250423]: the remaining activity at 1 µM was found to be 97.2%.

As to `O=C(C1CC2(CCC2)C1)N1CCCN(C[C@@H](O)c2ccccc2)CC1` [ZINC000981787500], the remaining activity at 1 µM is 48.4%.

For the compound `CC(C)=CC(=O)N1CC[C@@H](CNC(=O)c2ccn(CCN(C)C)n2)C1` [ZINC000982403760], the remaining activity at 1 µM amounted to 104%.

With `CCn1ncnc1CN1CCCN(C(=O)C[C@H]2CC(=O)NC2=O)CC1` [ZINC000989806749], the remaining activity at 1 µM worked out at 118%.

On to `CCc1noc(C)c1C(=O)NC1CN(C(=O)[C@H]2CCCCN2C)C1` [ZINC000991393621], for which the remaining activity at 1 µM turned out to be 116%.

Consider `Cc1c(C(=O)NC2CN(C(=O)c3cnns3)C2)ccc2cncn12` [ZINC000995014137], for which the remaining activity at 1 µM came to 123%.

For `CN1CC[C@H](C(=O)NC2CN(C(=O)Cc3ccc(F)cn3)C2)CC1=O` [ZINC000995125582], the remaining activity at 1 µM was 102%.

On to `CC(C)NC1CCN(C(=O)Cn2cnc(C(N)=O)n2)CC1` [ZINC000996610565], for which the remaining activity at 1 µM worked out at 114%.

Regarding `Cc1n[nH]cc1C(=O)NC1CN(C(=O)[C@H]2C[C@@H]3CCCCN3C2)C1` [ZINC000997292482], the remaining activity at 1 µM came out at 87.9%.

Consider `Cc1cnoc1C(=O)NC1CN(C(=O)[C@@H]2CCN(C)S2(=O)=O)C1` [ZINC000998978244], for which the remaining activity at 1 µM is 98.3%.

With `O=C(NCC1CN(C(=O)[C@H]2CC[C@H]3CCCCN32)C1)c1cnccn1` [ZINC001000730978], the remaining activity at 1 µM stood at 81.3%.

Consider `O=C(NCC1CCN([C@H]2CCNC2=O)CC1)c1ccn(C(F)F)n1` [ZINC001001445660], for which the remaining activity at 1 µM amounted to 92.1%.

For `Cc1cccc(F)c1C(=O)NCC1CCN(CCn2cncn2)CC1` [ZINC001002178741], the remaining activity at 1 µM came out at 109%.

Take `CCN1CC[C@@H](N2CCC(NC(=O)c3cncnc3C)CC2)C1=O` [ZINC001002391793]: the remaining activity at 1 µM was 90.1%.

`CCc1nnsc1C(=O)NCC1CN(C(=O)[C@H]2CCCN2C)C1` [ZINC001003018745]: the remaining activity at 1 µM was determined as 85.7%.

For `O=C(Cn1cnnn1)N1CC(CNC(=O)C23CCCN2CCC3)C1` [ZINC001003297636], the remaining activity at 1 µM amounted to 72.3%.

Turning to `CC[C@@H](C(N)=O)N1CCC(NC(=O)[C@H]2Cc3ccc(Cl)cc32)CC1` [ZINC001004070100], the remaining activity at 1 µM is 85.5%.

On to `C[C@@H](NC(=O)c1cnnn1C)C1CN(C(=O)C23CCCN2CCC3)C1` [ZINC001006004942], for which the remaining activity at 1 µM was 126%.

Take `O=C1NCC[C@@H]1C(=O)N[C@H]1CCN(CCn2cc(Cl)cn2)C1` [ZINC001015510639]: the remaining activity at 1 µM was determined as 87.4%.

For the compound `C[C@@]1(C(=O)N[C@H]2CC23CCN(CC(=O)NC2CC2)CC3)CCNC1=O` [ZINC001016825715], the remaining activity at 1 µM turned out to be 106%.

In the case of `Cn1ccc(N2CC[C@@H](N[C@H]3CCN(C(=O)CC4CCC4)C3)C2=O)n1` [ZINC001018665695], the remaining activity at 1 µM amounted to 120%.

Regarding `Cc1cc(C(=O)N2CC[C@H](NCc3cccc(Cl)c3F)C2)ncn1` [ZINC001018723708], the remaining activity at 1 µM amounted to 101%.

In the case of `O=C([C@H]1Cc2ccccc21)N1CC[C@H](NCc2ccncc2Cl)C1` [ZINC001019309159], the remaining activity at 1 µM is 99.6%.

As to `Cc1ccc(C(=O)NC[C@H]2CN(C(=O)[C@@H]3CCN(C)C3)CCCO2)o1` [ZINC001019525589], the remaining activity at 1 µM was determined as 85%.

`Cc1nc(CN[C@H]2C[C@H](NC(=O)Cn3ncn(C)c3=O)C2)cs1` [ZINC001020327691]: the remaining activity at 1 µM came out at 102%.

As to `Cc1ccccc1CN[C@H]1C[C@H](NC(=O)c2cn(C)c(=O)nc2O)C1` [ZINC001021041334], the remaining activity at 1 µM came out at 86.2%.

For `Cn1cc(CN[C@H]2C[C@H](NC(=O)c3cccc(C(N)=O)n3)C2)cn1` [ZINC001021109191], the remaining activity at 1 µM came to 106%.

For the compound `C[C@@H](C(N)=O)N1CCC[C@H](CNC(=O)c2nn(C)c3c2CCCC3)C1` [ZINC001023604137], the remaining activity at 1 µM is 89.3%.

With `Cn1nccc1C(=O)N1C[C@@H](O)[C@H](NC(=O)c2c[nH]nc2C2CC2)C1` [ZINC001025444165], the remaining activity at 1 µM was 95.7%.

For the compound `Cc1cc(C(=O)NC[C@@H]2CCN(CC(=O)Nc3cnccn3)C2)on1` [ZINC001028403773], the remaining activity at 1 µM turned out to be 109%.

`Cc1nc(O)[nH]c1C(=O)NC[C@H]1CCN([C@H](C)C(=O)NC2CC2)C1` [ZINC001028614115]: the remaining activity at 1 µM amounted to 115%.

With `Cc1ccnc2nc(C(=O)NCC3CN(CCCC4CCC4)C3)nn12` [ZINC001032169623], the remaining activity at 1 µM was determined as 92.8%.

In the case of `CCN(C(=O)c1cnccn1)[C@@H]1CCN(CC2CCCCCC2)C1` [ZINC001033739722], the remaining activity at 1 µM turned out to be 24.6%.

For `CCN(C(=O)c1ccnc(C2CC2)n1)[C@H]1CCN(CC2CCC2)C1` [ZINC001033973784], the remaining activity at 1 µM is 43.3%.
